The numbers were not newly measured in US6953823B2, “Elastomeric insulating composition for a solid propellant rocket motor” (Chung Shan Institute of Science and Technology, priority 2003, dated 2005), which cites them from elsewhere.

This data set relates to rats.

On to `[OH-].[OH-].[OH-].[OH-].[OH-].[OH-].[Sn+4].[Zn+2]` [Zinc Hydroxystannate, zinc hydroxystannate], for which the “Oral Toxicity (LD50, rats)” value is reported as over 5 gr/kg.
